{"source": "patent US20140234502A1", "about": "“Treatment of Produce” (Rohm and Haas Company, priority 2009, published 2014)", "format_in_all_cases": "in vivo, pear", "key": {"[1]": {"system": "Conference Pears", "assay": "Examination of Conference pears for scald", "conditions": "Example 9, CA 6 months, Italy", "excerpt": "(§1) Pears (Conference, William's/Bartlett, or Packam's) were harvested at maturity for long storage. Number of fruits and replicates were selected according to the size of the chamber in which to apply 1-MCP and according to the statistical design. Airtight containers in the range of 1 cubic meter were used for the application of both 1-MCP and ethylene. 1-MCP was released from SmartFresh™ powder that contained 0.14% 1-MCP by weight (obtained from AgroFresh, Inc.). The amount of that SmartFresh™ powder was chosen to yield the target atmospheric concentration of 1-MCP in the chosen container. For example, the 1-MCP released from 1000 mg of that SmartFresh™ powder in 1 cubic meter yielded 1-MCP concentration in the atmosphere of 625 ppb.\n(§2) The chosen amount of SmartFresh™ powder was dissolved in water into a tight flask and shaken until all the powder was dissolved. The flask was then put it into the airtight container and opened, to release the 1-MCP. At the same time of the opening of the 1-MCP flask, ethylene was injected with a syringe into the airtight container. Ethylene was taken from a compressed tank at known concentration: either taken directly or released into a flask. In the latter case the concentration was measured by gas-chromatograph to determine the quantity of volume to inject into the airtight container to get the target concentration.\n(§3) The exposure to atmosphere containing either 1-MCP alone or 1-MCP and ethylene was done on cold pears (already cooled down to non-ambient storage temperature) within a maximum of 7 days from harvest and lasted 24 hours. At the end of the application, the airtight container was vented for 15 minutes and the fruits were put into RA or CA storage. RA storage was at temperature of −1° C. to 1° C. and at relative humidity of 80% to 98%. CA storage had the same temperature and humidity of RA storage, had oxygen level of 1% to 3%, by volume based on the volume of the atmosphere and had carbon dioxide level of 0.5% to 2%, by volume based on the volume of the atmosphere.\nPears from Italy (the same pears whose firmness is reported herein above in Example 5) were examined for scald after exposure to ambient conditions for the number of days shown below."}, "[2]": {"system": "Conference Pears", "assay": "Firmness of Conference pears by penetrometer after treatment, non-ambient storage and shelf life", "parameters": "key to SW France F (firmness) / Italy F (firmness) / Average F (firmness): penetrometer force in kgf (8 mm probe)", "conditions": "for ES A F (firmness): farm ES A; for ES B F (firmness): farm ES B; for IT F (firmness): farm IT; for firmness: Example 9, CA 6 months; for Italy F (firmness) / firmness: Italy; for Orchard #1 F (firmness) / Orchard #2 F (firmness) / Orchard #3 F (firmness): Example 11, Spain, RA 3 months", "excerpt": "as §1, §2, §3\nIn addition, samples of pears (from the same orchards from which pears treated with 1-MCP alone or 1-MCP and ethylene were harvested) were put into an airtight container for 24 hours at the temperature as the treated pears in order to reproduce the same environmental conditions. Then they were stored in the same rooms or in separated rooms in the same conditions of RA and CA as the treated pears. These pears received no exposure to 1-MCP, exogenous ethylene, or any combination thereof, and they are labeled “control” below.\nLength of non-ambient storage at present commercial temperature and storage regime was generally of 2-4 months in RA and 6 months in CA, unless otherwise specified, according to normal commercial practice.\nAll pears received the same progression of non-ambient storage followed by exposure to ambient conditions (“shelf life”).\nPears denoted with a single number (e.g., “300”) received 1-MCP treatment with that concentration, in ppb, of 1-MCP in the atmosphere (e.g., 300 ppb) and were not exposed to exogenous ethylene. Pears denoted with two numbers (e.g. “300+600”) were treated with both that concentration in ppb of 1-MCP and that concentration in ppb of ethylene (e.g., 300 ppb of 1-MCP and 600 ppb of ethylene). The firmness of pears was tested using commercial penetrometers with test probe of 8 mm diameter. Reported quantity is “firmness” (“F”), the penetrometer force in kgf."}, "[3]": {"system": "Conference Pears", "assay": "Color rating of Conference pears", "conditions": "ambient 5-8 days; for Italy color / SW France color: scale of 0 (green) to 5 (yellow)", "excerpt": "as §1, §2, §3\nPears were tested for firmness, as described above, and were rated for color on a scale of 0 (green) to 5 (yellow)."}, "[4]": {"system": "Packam's Pears", "assay": "Firmness of Packam's pears by penetrometer after treatment, non-ambient storage and shelf life", "conditions": "South Africa, ambient 5 days, listed as 600", "excerpt": "as §1, §2, §3\nIn addition, samples of pears (from the same orchards from which pears treated with 1-MCP alone or 1-MCP and ethylene were harvested) were put into an airtight container for 24 hours at the temperature as the treated pears in order to reproduce the same environmental conditions. Then they were stored in the same rooms or in separated rooms in the same conditions of RA and CA as the treated pears. […]\nPears denoted with a single number (e.g., “300”) received 1-MCP treatment with that concentration, in ppb, of 1-MCP in the atmosphere (e.g., 300 ppb) and were not exposed to exogenous ethylene. […] Reported quantity is “firmness” (“F”), the penetrometer force in kgf. […]"}, "[5]": {"system": "Conference Pears", "assay": "Inspection of Conference pears for rot, bruising and internal browning", "excerpt": "as §1, §2, §3\nAfter RA storage, pears were exposed to ambient for the number of days shown below and then inspected for rot, bruising, and internal browning (“I.B.”). Results shown are the percentage of pears having the disorder.\nPears from SW France were examined as in Example 7, and the percent disordered fruit was as follows: […]"}, "[6]": {"conditions": "Example 3, RA 3 months, ambient 5 to 8 days"}, "[7]": {"conditions": "Example 4, CA 6 months, ambient 5 to 8 days"}, "[8]": {"conditions": "Example 5, RA 3 months, ambient 5-8 days"}, "[9]": {"conditions": "Example 6, CA 6 months, ambient 5-8 days"}, "[10]": {"conditions": "Example 7, RA 4 months, SW France, 13 ambient days"}, "[11]": {"conditions": "Example 8, CA 6 months, ambient 13 days, SW France"}}}
{"smiles": "CC1=CC1", "note": "[600(C), 1-MCP]", "values": [{"measurement": "percent with scald", "setting": "[1]; 0 ambient days", "result": 0, "unit": "%"}, {"measurement": "percent with scald", "setting": "[1]; 7 ambient days", "result": 1, "unit": "%"}, {"measurement": "AV F (firmness), average of the results from the seven farms", "setting": "[2]; [6]", "result": 5.7, "unit": "kgf"}, {"measurement": "ES A F (firmness)", "setting": "[2]; [6]", "result": 6.3, "unit": "kgf"}, {"measurement": "ES B F (firmness)", "setting": "[2]; [6]", "result": 6.3, "unit": "kgf"}, {"measurement": "FR A F (firmness)", "setting": "[2]; Example 3, RA 3 months, ambient 5 to 8 days, farm FR A", "result": 5.4, "unit": "kgf"}, {"measurement": "FR B F (firmness)", "setting": "[2]; Example 3, RA 3 months, ambient 5 to 8 days, farm FR B", "result": 5.2, "unit": "kgf"}, {"measurement": "IT F (firmness)", "setting": "[2]; [6]", "result": 5.7, "unit": "kgf"}, {"measurement": "NL A F (firmness)", "setting": "[2]; Example 3, RA 3 months, ambient 5 to 8 days, farm NL A", "result": 5.3, "unit": "kgf"}, {"measurement": "NL B F (firmness)", "setting": "[2]; Example 3, RA 3 months, ambient 5 to 8 days, farm NL B", "result": 5.6, "unit": "kgf"}, {"measurement": "Av F (firmness), average of the results from the six farms", "setting": "[2]; [7]", "result": 5.4, "unit": "kgf"}, {"measurement": "ES A F (firmness)", "setting": "[2]; [7]", "result": 6.1, "unit": "kgf"}, {"measurement": "ES B F (firmness)", "setting": "[2]; [7]", "result": 5.6, "unit": "kgf"}, {"measurement": "FR F (firmness)", "setting": "[2]; Example 4, CA 6 months, ambient 5 to 8 days, farm FR", "result": 5.1, "unit": "kgf"}, {"measurement": "IT F (firmness)", "setting": "[2]; [7]", "result": 4.9, "unit": "kgf"}, {"measurement": "NL A F (firmness)", "setting": "[2]; Example 4, CA 6 months, ambient 5 to 8 days, farm NL A", "result": 5.1, "unit": "kgf"}, {"measurement": "NL B F (firmness)", "setting": "[2]; Example 4, CA 6 months, ambient 5 to 8 days, farm NL B", "result": 5.7, "unit": "kgf"}, {"measurement": "Italy F (firmness)", "setting": "[2]; [8]", "result": 5.7}, {"measurement": "SW France F (firmness)", "setting": "[2]; [8]", "result": 5.2}, {"measurement": "Italy F (firmness)", "setting": "[2]; [9]", "result": 4.9}, {"measurement": "SW France F (firmness)", "setting": "[2]; [9]", "result": 5.1}, {"measurement": "Average F (firmness)", "setting": "[2]; Example 6, CA 6 months, ambient 5-8 days, average of SW France and Italy", "result": 5.0}, {"measurement": "firmness", "setting": "[2]; 0 ambient days", "result": 6.8, "unit": "kgf"}, {"measurement": "firmness", "setting": "[2]; 7 ambient days", "result": 4.9, "unit": "kgf"}, {"measurement": "Average F (firmness), average of the two orchards", "setting": "[2]; Example 10, RA 3 months, ambient 5 days", "result": 5.58, "unit": "kgf"}, {"measurement": "NL A F (firmness)", "setting": "[2]; Example 10, RA 3 months, ambient 5 days, NL A", "result": 5.65, "unit": "kgf"}, {"measurement": "NL B F (firmness)", "setting": "[2]; Example 10, RA 3 months, ambient 5 days, NL B", "result": 5.52, "unit": "kgf"}, {"measurement": "Orchard #1 F (firmness)", "setting": "[2]; 0 days ambient", "result": 5.95, "unit": "kgf"}, {"measurement": "Orchard #2 F (firmness)", "setting": "[2]; 0 days ambient", "result": 6.07, "unit": "kgf"}, {"measurement": "Orchard #3 F (firmness)", "setting": "[2]; 0 days ambient", "result": 6.46, "unit": "kgf"}, {"measurement": "Orchard #1 F (firmness)", "setting": "[2]; 7 days ambient", "result": 5.95, "unit": "kgf"}, {"measurement": "Orchard #2 F (firmness)", "setting": "[2]; 7 days ambient", "result": 6.03, "unit": "kgf"}, {"measurement": "Orchard #3 F (firmness)", "setting": "[2]; 7 days ambient", "result": 6.30, "unit": "kgf"}, {"measurement": "Orchard #1 F (firmness)", "setting": "[2]; 12 days ambient", "result": 5.75, "unit": "kgf"}, {"measurement": "Orchard #2 F (firmness)", "setting": "[2]; 12 days ambient", "result": 6.17, "unit": "kgf"}, {"measurement": "Orchard #3 F (firmness)", "setting": "[2]; 12 days ambient", "result": 6.58, "unit": "kgf"}, {"measurement": "Italy color", "setting": "[3]; Example 5, RA 3 months", "result": 2.1}, {"measurement": "SW France color", "setting": "[3]; Example 5, RA 3 months", "result": 2.95}, {"measurement": "Italy color", "setting": "[3]; Example 6, CA 6 months", "result": 3.4}, {"measurement": "SW France color", "setting": "[3]; Example 6, CA 6 months", "result": 2.65}, {"measurement": "Average color", "setting": "[3]; Example 6, CA 6 months, average of SW France and Italy, scale 0 (green) to 5 (yellow)", "result": 3.0}, {"measurement": "8 weeks F (firmness)", "setting": "[4]; RA for 8 weeks", "result": 6.5, "unit": "kgf"}, {"measurement": "12 weeks F (firmness)", "setting": "[4]; RA for 12 weeks", "result": 6.3, "unit": "kgf"}, {"measurement": "percentage of pears having internal browning (I.B.)", "setting": "[5]; Example 7, RA 4 months, Loire, France, 11 ambient days", "result": 0, "unit": "percentage"}, {"measurement": "percentage of pears having internal browning (I.B.)", "setting": "[5]; Example 7, RA 4 months, Loire, France, 13 ambient days", "result": 0, "unit": "percentage"}, {"measurement": "percentage of pears having internal browning (I.B.)", "setting": "[5]; Example 7, RA 4 months, Loire, France, 15 ambient days", "result": 0, "unit": "percentage"}, {"measurement": "percentage of pears having bruising", "setting": "[5]; [10]", "result": 0, "unit": "percentage"}, {"measurement": "percentage of pears having internal browning (I.B.)", "setting": "[5]; [10]", "result": 0, "unit": "percentage"}, {"measurement": "percentage of pears having rot", "setting": "[5]; [10]", "result": 0, "unit": "percentage"}, {"measurement": "percent disordered fruit: I.B.", "setting": "[5]; [11]", "result": 30, "unit": "%"}, {"measurement": "percent disordered fruit: rot", "setting": "[5]; [11]", "result": 13, "unit": "%"}]}
